# Experimental data published in US20260294915A1, “COMBINATION THERAPY COMPRISING A MAT2A INHIBITOR AND A TOPOISOMERASE INHIBITOR, A SPLICING INHIBITOR SULFONAMIDE, OR A KIF18 INHIBITOR” (IDEAYA BIOSCIENCES, INC., priority 2023, published 2026).
# Where a name gives a salt, the structure may show the parent alone.
# Columns and labels:
# [1] = tested on: NCI-H520; assay: 10-day proliferation (CTG), equimolar Compound A + SPLAM (Example 4); type: cell-based; settings: single agent or 1:1 combo
# Protocol: (§1) A 10-day proliferation assay was performed in a panel of 5 MTAP-deficient and 2 wild type non-small cell lung and bladder cancer cell lines. Optimal cell seeding for all cell lines was determined by assessing the growth over a range of seeding densities in a 384-well format to identify conditions that permitted proliferation for 10 days. Cells were then plated at the optimal seeding density and treated with 20-point, two-fold dilution series of Compound A, the splicing inhibitor sulfonamide (SPLAM), or an equimolar combination of Compound A and the SPLAM. Combinations tested included Compound A in combination with four structurally different SPLAMs. Concentrations tested for Compound A and each SPLAM alone or in combination ranged from 0.04 nM to 20,000 nM. A plate of cells was harvested at the time of compound addition to quantify the number of cells at the start of the combination (T0). For cell quantification, the harvested cells were lysed with Promega CellTiter-Glo (CTG) reagent according to the manufacturer's protocol and the chemiluminescent signal was detected on a Synergy Neo plate reader. CTG estimates cell number through detection of cellular ATP levels. Cells were incubated with the drug combinations at 37° C. with 5% CO2 for 10 days. Cells were then lysed with CTG and the chemiluminescent signal was measured.
# (§2) CTG values obtained after the 10-day treatment were background subtracted and expressed as a percent of the T0 value. Data were plotted against compound concentration and fit with a four-parameter equation to generate dose response curves for each single agent and the equimolar combination. Growth ICx (gICx) values ranging from gIC30 to gIC100 were interpolated from the fitted curves. Synergistic growth inhibition was assessed by determination of Combination Index (CI) values at these various points across the titration using the mutually non-exclusive equation [Chou, 1983; Chou, 1981] shown below where A equals the gICx value of Compound A, B equals the gICx value of the SPLAM, and A+B or B+A equals the gICx value of the equimolar combination. A Combination Index value less than 1.0 was considered synergistic.
# [2] = tested on: NCI-H838; assay: as above; type: cell-based; settings: single agent or 1:1 combo
# Protocol: as §1, §2
# [3] = tested on: RT112/84; assay: as above; type: cell-based; settings: single agent or 1:1 combo
# Protocol: as §1, §2
# [4] = tested on: SW900; assay: as above; type: cell-based; settings: single agent or 1:1 combo
# Protocol: as §1, §2
# [5] = tested on: TCCSUP; assay: as above; type: cell-based; settings: single agent or 1:1 combo
# Protocol: as §1, §2
# [6] = tested on: UMUC11; assay: as above; type: cell-based; settings: single agent or 1:1 combo
# Protocol: as §1, §2
# [7] = tested on: UMUC5; assay: as above; type: cell-based; settings: single agent or 1:1 combo
# Protocol: as §1, §2
# [8] = tested on: RT112/84 human bladder tumor cell-derived xenograft (CDX) model; assay: Anti-tumor activity in RT112/84 mouse xenograft (CDX) model (Example 7); type: in vivo
# Protocol: (§3) All mouse studies were approved by the Institutional Animal Care and Use Committee (IACUC) based on guidelines from the National Institutes of Health (NIH). Mice were maintained under pathogen-free conditions, and food and water were provided ad libitum.
# The anti-tumor effect of Compound A and irinotecan hydrochloride as single-agents or in combination was assessed in the RT112/84 human bladder tumor cell-derived xenograft (CDX) model. Cells were expanded in RPMI-1640 (Gibco, Catalog Number 11875093) with 10% fetal bovine serum. These cells were free of mycoplasma and authenticated by STR profiling. Five million cells in log growth phase were resuspended in Hanks Balanced Salt Solution containing 50% Matrigel and implanted subcutaneously into the flank of each recipient female Crl:NU-Foxnlnu mouse. Mice were housed in microisolator cages with corn cob bedding with additional enrichment consisting of sterile nesting material (Innovive) and Bio-huts (Bio-Serv). Water (Innovive) and diet (Teklad Global 19% Protein Extruded Diet 2919, Irradiated) were provided ad libitum. The environment was maintained on a 12-hour light cycle at approximately 68-72° F. and 40-60% relative humidity.
# Tumor Volume (TV) was calculated using the following formula: TV (mm^3)=(width×width×length)/2. Tumor growth inhibition (TGI) was calculated by [(TV controlfinal−TV treatedfinal)/(TV controlfinal−TV controlinitial)×100]. TV was analyzed for statistical significance utilizing GraphPad Prism version 10.0.3. Repeated Measures 2-Way ANOVA with Tukey's Multiple Comparisons was utilized, and P-values were derived from data collected on Day 14 (date of Vehicle group termination) and were considered statistically significant if less than 0.05. Tumor regression was calculated by using the percent change in tumor volume from the final tumor volume measurement from Day 73 when compared to the initial tumor volume from Day 1. Tumor regression was defined as reduced TV on Day 73 compared to Day 1. Tumor regression rate was defined as the percentage of animals per group with tumor regression.
# Mean tumor volume at dosing start was approximately 249 mm^3, with ten mice randomized to each treatment group. Mice were dosed orally, once per day, with Vehicle, Compound A at 10 mg/kg, or dosed for 3 consecutive days followed by 4 days holiday by intraperitoneal (IP) injection of Compound B at 5 mg/kg, or combination of Compound A and Compound B. The vehicle group was a combination of Vehicle A (for Compound A, 0.5% 400 cps methylcellulose with 0.5% Tween-80 in sterile water) and Vehicle B (for irinotecan hydrochloride, Saline).
# [9] = tested on: MKN45 (RCB1001) human gastric tumor cell-derived xenograft (CDX) model; assay: Anti-tumor activity in MKN45 gastric mouse xenograft (CDX) model (Example 8); type: in vivo; settings: 3 days on/4 days holiday
# Protocol: as §3
# (§4) The anti-tumor effect of Compound A and irinotecan hydrochloride as single-agents or in combination was assessed in the MKN45 (RCB1001) human gastric tumor cell-derived xenograft (CDX) model. MKN45 was expanded in RPMI1640 with 10% fetal bovine serum. Cells were free of mycoplasma and authenticated by STR profiling, and ten million cells in log growth phase were resuspended in Hanks Balanced Salt Solution containing 50% Matrigel and implanted subcutaneously into the flank of each recipient female Crl:NU-Foxn1nu mouse. Mice were housed in microisolator cages with corn cob bedding with additional enrichment consisting of sterile nesting material (Innovive) and Bio-huts (Bio-Serv). Water (Innovive) and diet (Teklad Global 19% Protein Extruded Diet 2919, Irradiated) were provided ad libitum. The environment was maintained on a 12-hour light cycle at approximately 68-72° F. and 40-60% relative humidity.
# (§5) Tumor Volume (TV) was calculated using the following formula: TV (mm^3)=(width×width×length)/2. Tumor growth inhibition (TGI) was calculated by [(TV controlfinal−TV treatedfinal)/(TV controlfinal−TV controlinitial)×100]. TV was analyzed for statistical significance utilizing GraphPad Prism version 10.2.2. Repeated Measures 2-Way ANOVA with Dunnet's Multiple Comparisons was utilized, and P-values were derived from data collected on the date of Vehicle group termination and were considered statistically significant if less than 0.05.
# Mean tumor volume at dosing start was approximately 190 mm^3, with six mice randomized to each treatment group. Mice were dosed orally, once per day, with Vehicle, Compound A at 10 mg/kg, or dosed for 3 consecutive days followed by 4 days holiday by intraperitoneal (IP) injection of Compound B at 5 mg/kg or 10 mg/kg, or combination of Compound A and Compound B. The vehicle group was a combination of Vehicle A (for Compound A, 0.5% 400 cps methylcellulose with 0.5% Tween-80 in sterile water) and Vehicle B (for irinotecan hydrochloride, Saline).
# [10] = tested on: LMSU (RCB1062) human gastric tumor cell-derived xenograft (CDX) models; assay: Anti-tumor activity in LMSU gastric mouse xenograft (CDX) model (Example 9); type: in vivo; settings: 3 days on/4 days holiday; for Day 11 TV (mean): initial TV 185, vehicle 1018
# Protocol: as §3
# as §4, with “LMSU (RCB1062)” for “MKN45 (RCB1001)”, “models. LMSU” for “model. MKN45”, “HamF10” for “RPMI1640”
# as §5
# Mean tumor volume at dosing start was approximately 185 mm^3, with seven mice randomized to each treatment group. Mice were dosed orally, once per day, with Vehicle, Compound A at 10 mg/kg, or dosed for 3 consecutive days followed by 4 days holiday by intraperitoneal (IP) injection of Compound B at 5 mg/kg or 10 mg/kg, or combination of Compound A and Compound B. The vehicle group was a combination of Vehicle A (for Compound A, 0.5% 400 cps methylcellulose with 0.5% Tween-80 in sterile water) and Vehicle B (for irinotecan hydrochloride, Saline).
# [11] = irinotecan hydrochloride 5 mg/kg IP, 3 days on/4 days holiday
# [12] = irinotecan hydrochloride 5 mg/kg IP
# [13] = irinotecan hydrochloride 10 mg/kg IP
compound,measurement,setting,value
"O=C(NS(=O)(=O)c1ccc(Br)s1)c1ccc(Cl)cc1Cl [Tasisulam, N-((5-bromothiophen-2-yl)sulfonyl)-2,4-dichlorobenzamide]",IC50,"[1]; Homo sapiens, NCI-H520, read-out: gIC50",11.2 µM
same,gIC30,[1],9.551 µM
same,gIC40,[1],10.354 µM
same,gIC60,[1],12.274 µM
same,gIC70,[1],13.716 µM
same,gIC100,[1],20 µM
same,IC80,"[1]; 14400 min, read-out: gIC80",16.4 µM
same,IC90,"[1]; 14400 min, read-out: gIC90",12 µM
same,IC50,"[2]; Homo sapiens, NCI-H838, read-out: gIC50",4.93 µM
same,gIC30,[2],7.419 µM
same,gIC40,[2],4.551 µM
same,gIC60,[2],5.372 µM
same,gIC70,[2],5.923 µM
same,gIC100,[2],20 µM
same,IC80,"[2]; 14400 min, read-out: gIC80",6.69 µM
same,IC90,"[2]; 14400 min, read-out: gIC90",7.97 µM
same,IC50,"[3]; Homo sapiens, RT112/84, read-out: gIC50",20 µM
same,gIC30,[3],20 µM
same,gIC40,[3],20 µM
same,gIC60,[3],20 µM
same,gIC70,[3],20 µM
same,gIC100,[3],20 µM
same,IC80,"[3]; 14400 min, read-out: gIC80",20 µM
same,IC90,"[3]; 14400 min, read-out: gIC90",20 µM
same,IC50,"[4]; Homo sapiens, SW900, read-out: gIC50",20 µM
same,gIC30,[4],20 µM
same,gIC40,[4],20 µM
same,gIC60,[4],20 µM
same,gIC70,[4],20 µM
same,gIC100,[4],20 µM
same,IC80,"[4]; 14400 min, read-out: gIC80",20 µM
same,IC90,"[4]; 14400 min, read-out: gIC90",20 µM
same,IC50,"[5]; Homo sapiens, TCC-SUP, read-out: gIC50",20 µM
same,gIC30,[5],20 µM
same,gIC40,[5],20 µM
same,gIC60,[5],20 µM
same,gIC70,[5],20 µM
same,gIC100,[5],20 µM
same,IC80,"[5]; 14400 min, read-out: gIC80",20 µM
same,IC90,"[5]; 14400 min, read-out: gIC90",20 µM
same,gIC30,[6],17.77 µM
same,gIC40,[6],18.358 µM
same,gIC60,[6],19.349 µM
same,gIC70,[6],19.781 µM
same,gIC100,[6],20 µM
same,IC80,"[6]; 14400 min, read-out: gIC80",20 µM
same,IC90,"[6]; 14400 min, read-out: gIC90",20 µM
same,IC50,[6]; read-out: gIC50,18.9 µM
same,gIC30,[7],16.121 µM
same,gIC40,[7],16.834 µM
same,gIC60,[7],18.053 µM
same,gIC70,[7],18.592 µM
same,gIC100,[7],20 µM
same,IC80,"[7]; 14400 min, read-out: gIC80",19.1 µM
same,IC90,"[7]; 14400 min, read-out: gIC90",19.6 µM
same,IC50,[7]; read-out: gIC50,17.5 µM
CCc1c2c(nc3ccc(OC(=O)N4CCC(N5CCCCC5)CC4)cc13)-c1cc3c(c(=O)n1C2)COC(=O)[C@]3(O)CC [irinotecan hydrochloride],TGI,"[8]; Compound A 10 mg/kg oral once per day, irinotecan 5 mg/kg IP 3 days on/4 days off",83%
same,response rate (mice with tumor regressions),"[8]; day 73, Compound A 10 mg/kg oral, irinotecan 5 mg/kg IP",30%
same,Day 14 TGI,[8]; [11],83%
same,Tumor Regression Rate on Day 73,[8]; [11],30%
same,Day 14 TV (mean),"[8]; irinotecan hydrochloride 5 mg/kg IP, 3 days on/4 days holiday, initial TV 249, vehicle 1069",387 mm^3
same,Day 25 TGI,[9]; [12],49%
same,Tumor Regression Rate on Day 25,[9]; [12],0%
same,Day 25 TV (mean),"[9]; irinotecan hydrochloride 5 mg/kg IP, initial TV 190, vehicle 1396",807 mm^3
same,Day 25 TGI,[9]; [13],85%
same,Tumor Regression Rate on Day 25,[9]; [13],17%
same,Day 25 TV (mean),"[9]; irinotecan hydrochloride 10 mg/kg IP, initial TV 192, vehicle 1396",369 mm^3
same,Day 11 TGI,[10]; [12],42%
same,Tumor Regression Rate on Day 11,[10]; [12],0%
same,Day 11 TV (mean),[10]; [12],671 mm^3
same,Day 11 TGI,[10]; [13],80%
same,Tumor Regression Rate on Day 11,[10]; [13],14%
same,Day 11 TV (mean),[10]; [13],353 mm^3
